Experimental data reported in US8058269B2, “Oxindole derivatives” (Hoffman-La Roche Inc., priority 2006, dated 2011).

Molecular target: interaction between p53 and MDM2 proteins (Homo sapiens, UniProt Q00987)
Test: HTRF assay of inhibition of the p53-MDM2 interaction (GST-MDM2 / biotinylated p53 peptide)
Type: binding
Conditions: recombinant GST-tagged MDM2 and biotinylated p53 peptide, 0.02% BSA
Method: In a […], the ability of the compounds to inhibit the interaction between p53 and MDM2 proteins was measured. The ability of the compounds to inhibit the interaction between p53 and MDM2 proteins was measured by an HTRF (homogeneous time-resolved fluorescence) assay in which recombinant GST-tagged MDM2 binds to a peptide that resembles the MDM2-interacting region of p53 (Lane et al.). Binding of GST-MDM2 protein and p53-peptide (biotinylated on its N-terminal end) is registered by the FRET (fluorescence resonance energy transfer) between Europium (Eu)-labeled anti-GST antibody and streptavidin-conjugated Allophycocyanin (APC). […]

interaction between p53 and MDM2 proteins, sequence (Q00987 whole entry): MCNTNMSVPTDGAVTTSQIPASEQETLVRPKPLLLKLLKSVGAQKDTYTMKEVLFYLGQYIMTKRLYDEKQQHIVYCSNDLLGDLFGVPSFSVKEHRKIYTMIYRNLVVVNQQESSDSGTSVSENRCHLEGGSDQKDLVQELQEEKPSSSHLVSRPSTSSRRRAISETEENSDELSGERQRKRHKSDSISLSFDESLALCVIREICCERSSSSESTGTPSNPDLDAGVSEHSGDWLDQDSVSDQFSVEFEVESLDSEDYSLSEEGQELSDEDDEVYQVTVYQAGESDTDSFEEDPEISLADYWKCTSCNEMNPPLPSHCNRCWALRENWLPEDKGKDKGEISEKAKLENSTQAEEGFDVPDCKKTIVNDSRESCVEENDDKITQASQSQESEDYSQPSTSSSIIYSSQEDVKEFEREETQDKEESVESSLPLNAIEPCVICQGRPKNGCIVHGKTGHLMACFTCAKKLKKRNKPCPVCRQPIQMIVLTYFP

IC50 [nM] | Compound
3.73 | O=C1Nc2cc(Cl)ccc2C1(Cc1cccc(Cl)c1)Nc1ccc(Br)cc1F (racemic) [Example 11, rac-3-(4-bromo-2-fluoro-phenylamino)-6-chloro-3-(3-chloro-benzyl)-1,3-dihydro-indol-2-one]
2.56 | O=C1Nc2cc(Cl)ccc2C1(Cc1cccc(Cl)c1)Nc1cccc(OC(F)F)c1 (racemic) [Example 19, rac-6-chloro-3-(3-chloro-benzyl)-3-(3-difluoromethoxy-phenylamino)-1,3-dihydro-indol-2-one]
2.54 | O=C1Nc2cc(Cl)ccc2C1(Cc1cccc(Cl)c1)NC1CCC1 (racemic) [Example 49, rac-6-chloro-3-(3-chloro-benzyl)-3-cyclobutylamino-1,3-dihydro-indol-2-one]
3.68 | O=C1Nc2cc(Cl)ccc2C1(Cc1cccc(Cl)c1)N1CCCC(O)C1 (racemic) [Example 62, rac-6-chloro-3-(3-chloro-benzyl)-3-(3-hydroxy-piperidin-1-yl)-1,3-dihydro-indol-2-one]
